The values below come from patent publication US20210055311A1, “SCREENING METHOD FOR ESTROGENIC AND ANTI-ESTROGENIC ACTIVITY” (BUNDESINSTITUT FÜR RISIKOBEWERTUNG, priority 2018, published 2021).

Common to all, as to type: cell-based, human
One assay relates to MCF-7/ACC115 cells. The assay can be described thus: Adherens junction morphology upon fulvestrant in MCF-7/ACC115 cells. The settings on record: 10^−8 M, 48 h. As for the experimental part: (§1) Next, the inventors tried to reproduce the effects obtained with the cells as deposited under DSM ACC3321 with other conventional MCF-7 cells, namely MCF-7/BOS provided by Prof. Ana Soto (Tufts University School of Medicine, Boston, Mass., USA) and the MCF-7/ACC115 clone obtained from the Leibniz-Institut DSMZ-Deutsche Sammlung von Mikroorganismen and Zellkulturen GmbH (Braunschweig, Germany).
(§2) Briefly, the MCF-7 cells were seeded and grown on glass coverslips in multi-well tissue culture plates (TPP) for 24 h to reach near 100% confluence and then treated for at least 48 h with 0.1% EtOH (solvent control) and the ERα antagonist fulvestrant (Sigma-Aldrich, CAS-No. 129453-61-8) at a concentration of 10^−8 M. During experiments, medium was exchanged on a daily basis. All experiments were performed at 37° C. with 5% CO2 in reduced-serum medium (phenol red-free DMEM (Gibco), 5% FBS (Biochrom, S 0615, LOT1353 W), 1% glutamine, 100 μg/ml streptomycin/100 U/ml penicillin (Biochrom)).

Another assay concerns MCF-7/vBOS cells. The assay can be described thus: Adherens junction stability: cell rounding after EGTA-containing medium (live imaging). Particulars: pre-treated 48 hours; EGTA 8×10^−3 M, 120 minutes; vs control cells. As for the experimental part: FIG. 9 provides a CellProfiler/CellProfiler-Analyst-based quantification (analogous to FIG. 7) showing the rate of cell rounding over the course of 120 minutes in MCF7/vBOS cells pre-treated with fulvestrant for 48 hours (dotted bars) compared to solvent control cells (black bars). Indicated time points depict time after application of EGTA-containing medium (EGTA, 8×10^−3 M) to disrupt adherens junctions. Biological replicates, n=3. Error bars, mean+/−s.e.m. Statistical testing, one-way ANOVA with Sidak's correction for multiple comparisons; *, p<0.05; **, p<0.01; ***, p<0.005; ****, p<0.001. Scale bar, 50 μm.
In a further set of experiments, the inventors tested whether the anti-estrogen-mediated reorganization of adherens junctions likewise increased adherens junction stability in MCF-7/vBOS cells. Therefore, EGTA-containing medium (8×10^−3 M) was applied to both control cells and cells pre-treated for 48 hours with fulvestrant to disrupt homophilic E-Cadherin binding, and the fraction of rounded cells was monitored over the course of 120 minutes by live imaging. Quantification of rounded cells vs. non-rounded cells was done in analogous manner as described above in example 7 for quantification of continuous and discontinuous adherens junctions.

Assay [1] concerns MCF7/vBOS cells (DSM ACC3321). The assay can be described thus: Formation of discontinuous basolateral adherens junctions upon anti-estrogen exposure (E-Cadherin immunofluorescence).
In a further assay the test system is MCF-7/BOS cells. The assay can be described thus: Adherens junction morphology upon fulvestrant in parental MCF-7/BOS cells. The settings on record: 10^−8 M, 48 h. The procedure:
as §1, §2

SMILES strings stand for the structures.

For `C[C@]12CC[C@@H]3c4ccc(O)cc4C[C@@H](CCCCCCCCC[S+]([O-])CCCC(F)(F)C(F)(F)F)[C@H]3[C@@H]1CC[C@@H]2O` (stereo partly drawn) [Fulvestrant], the “adherens junctions morphology in absence and presence of fulvestrant” value in the assay with MCF-7/ACC115 cells and in the assay on MCF-7/BOS cells was “same continuous adherens junctions morphology” each time. In addition, the “rate of cell rounding” value in the assay with MCF-7/vBOS cells was “significantly reduced”. The “change in adherens junctions morphology on staining β-Catenin, α-Catenin, p120-Catenin or cortical actin cytoskeleton” value in assay [1] (10^−8 M, at least 48 h) is “also observable”. Further, in assay [1] (exposure for only 2 hours, read after 48 hours in media w/o fulvestrant), the “manifestation of phenotype after short exposure” value is “lead to manifestation of the discontinuous basolateral adherens junctions phenotype”. For the same compound, the “stability of discontinuous adherens junctions independent of the presence of fulvestrant” value in assay [1] (fulvestrant 24 hours, then 24 or 48 hours in fulvestrant-free medium) is reported as “at least 48”.
